Measured values from PubChem BioAssay AID179 (DTP/NCI, 2004).
The source made the active and inactive calls.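 How the source made its calls: active means compounds giving half or more protection of infected cells from virus-caused growth loss, again on retest; inactive means the rest.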 *1 amine or outer side, *2 acyl side, *3 side chain or, on linkers, in order; H or OH if unused. Where a SMILES comes first, the peptide text is derived from it. [ ]: non-standard residue; d: D form. The star is where a group is joined. X3 = CC(=O)N(C)SCC(N[*:1])C(=O)[*:2]; Cbz = O=C(OCc1ccccc1)*; Aib = CC(C)(N)C(=O)O; OBn = c1ccc(CO*)cc1; Bn = c1ccc(C*)cc1; For = O=C*

Tested on: CEM cells HIV-1 protection, formazan growth assay
Experiment: NCI AIDS Antiviral Assay
Conditions: for IC50: measured here: growth of uninfected CEM cells
Method in brief: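 Protection of CEM cells against HIV-1 was scored from cell growth (soluble formazan) across five concentrations, with parallel uninfected cells. Lack of protection may reflect toxicity.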

Structure (SMILES) | EC50 [µM] | IC50 [µM] | outcome
CC(C)S(=O)(=O)c1s[nH]c(=O)c1-c1ccccc1 | > 178 | > 178 | 
O=Cc1ccc(/C=C2\C=Cc3ccccc32)cc1 | > 58.9 | > 58.9 | 
O=C1OCC23CCC4C1C42CC1(CC3)OCCO1 (centres undefined) | > 200 | > 200 | 
CNS(=O)(=O)NNS(=O)(=O)c1ccc(Br)cc1 | > 75.9 | > 75.9 | 
O=c1[nH]c(=O)n(C2OC(CO)C(O)C2O)cc1OCCCc1ccccc1 (centres undefined) | > 200 | > 200 | 
Cc1c2c(c(C)c3c[n+](C)ccc13)Oc1ccccc1O2 | > 20 | 3.72 | 
CSC(=S)c1ccc(C(=S)SC)cc1 |  |  | inactive
CC(C)(Oc1ccc(C(=O)c2ccc(Cl)cc2)cc1Cl)C(=O)Nc1c(Cl)cccc1Cl | > 7.59 | > 7.59 | 
CCC(C#N)(c1ccccc1)N(CCc1ccccc1)C(=O)c1ccccc1 (centres undefined) | > 200 | 191 | 
CC(C)C(NCc1c2ccccc2[n+]([O-])c2ccccc12)C(=O)O (centres undefined) |  |  | inactive
NC(=S)N/N=C1/C(=O)N(c2ccc(Cl)cc2Cl)C(=O)C(=O)C1c1nc2ccccc2s1 (centres undefined) | > 72.4 | > 72.4 | 
O=C(O)CCCCCCCCCCCOc1ccccc1 | > 200 | 63.1 | 
COc1cc2c(c(Oc3ccc(C)cc3)c1)CN(C)CC2 | > 200 | 75.9 | 
Clc1ccc(CNc2nc(Cl)c3[nH]cnc3n2)cc1Cl | > 200 | 22.9 | 
N#Cc1ccc([N+](=O)[O-])cc1NC(N)=S | > 224 | > 224 | 
CC(C)[C@H]1CO[C@]2(C)[C@@H]3CN(Cc4ccccc4)C[C@@H]3C(=O)N12 | > 214 | > 214 | 
CN=c1ss/c(=N\C(=S)N(C)C)n1C1CCCCC1 |  |  | inactive
CCN(CC)CCC(=O)NC1c2ccccc2Oc2c(C)cccc21 (centres undefined) | > 275 | 58.9 | 
CC(C)CC1N=C(OCc2ccccc2)OC1=O (centres undefined) | > 200 | > 200 | 
C=CCCCCCCCCCOC1C=CC(OC(C)=O)C(COC(C)=O)O1 (centres undefined) | > 200 | 63.1 | 
CCOP(=O)(OCC)C(C)(CC)N/C(=N/C(NC(C)=O)(C(F)(F)F)C(F)(F)F)NC1=NC(C(F)(F)F)(C(F)(F)F)N=C(C(F)(F)F)O1 (centres undefined) | > 200 | 14.5 | 

Structure (SMILES) | EC50 [µM] | IC50 [µM] | outcome
COc1ccc(-c2cc(-c3ccccc3)c3c(n2)-c2ccccc2NC(=O)C3)cc1 | > 200 | 38 | 
COc1cc(C(=O)Oc2c(C#N)sc3c2c(=O)n(-c2ccccc2)c(=S)n3-c2ccccc2)cc(OC)c1OC | > 200 | 0.617 | 
Cc1[nH]c2ccccc2c1C1Cc2ccccc2N1C(=O)/C=C/C(=O)O (centres undefined) | > 724 | 132 | 
CCN(CC)c1c(-c2c(OC(C)C)c(=O)c2=O)c(=O)n2ccsc2c1OC(C)=O | > 200 | 141 | 
CN(C)c1ccc(C=C(C(=O)c2ccccc2)C(=O)c2ccccc2)cc1 | > 10.7 | > 10.7 | 
ClC1(Cl)C2(Cl)C3(Cl)C4C2(Cl)C2(Cl)C4(Cl)C3(Cl)C12Cl (centres undefined) | > 200 | 33.1 | 
COC(=O)Cc1c([C@@H]2Nc3ccccc3[C@H]2CC(=O)OC)[nH]c2ccccc12 | > 200 | 30.2 | 
CC(=O)N(C)SCC(NC(=O)C(Cc1ccccc1)NC(=O)OCc1ccccc1)C(=O)NC(Cc1ccccc1)C(=O)NC(Cc1cn(C=O)c2ccccc12)C(=O)NC(CCCCNC(=O)OCc1ccccc1)C(=O)NC(C(=O)NC(CSN(C)C(C)=O)C(=O)NC(C(N)=O)C(C)OCc1ccccc1)C(C)OCc1ccccc1 (centres undefined) (Cbz-F[X3]FW(For)K(Cbz)T(Bn)[X3]T(Bn)-NH2; configuration not given here) | > 100 | > 100 | 
Cc1c2c(cc3c(=O)ccn(CCN(C)C)c13)c(=O)ccn2CCN(C)C | > 135 | 1 | 
COC(=O)NN/C=C(\C=Nc1ccccc1)[N+](=O)[O-] | > 97.7 | 87.1 | 
S=c1nc(Oc2ccc(Cl)c(Cl)c2)[nH]c(=S)[nH]1 | > 23.4 | > 23.4 | 
CCOC(=O)c1ccc(-n2cnc(-c3ccc([N+](=O)[O-])cc3)c2)cc1 | 95.5 | > 200 | 
N#Cc1ccc(OCc2ccc3nc(-c4ccccc4)c(Cl)nc3c2)cc1 | > 100 | > 100 | 
CCOC(=O)C1CSCCSC1 | > 174 | > 174 | 
Cc1c(N=Nc2ccccc2)c(C)n(C2OC(CO)C(O)C(O)C2O)c(=S)c1C#N (centres undefined) | > 200 | 22.9 | 
CCC12CCCN(Cc3ccccc3)C1c1c(n(C)c3ccccc13)[C@H](C(=O)OC)C2 (some centres undefined) | > 12.6 | > 12.6 | 
CCOC(=O)C(NC(=O)CC)(Nc1ccc(F)c(Cl)c1)C(F)(F)F (centres undefined) | > 200 | > 200 | 
CC1(C)CC2C(/C1=N/O)C1(C)CCCC2(C)C1O (centres undefined) | > 200 | > 200 | 
Cc1cccc2[nH]c3cc(O)cc(O)c3c(=O)c12 | > 200 | 10.5 | 
CC(NC(=O)C(C)(C)NC(=O)C(CC(=O)OCc1ccccc1)NC(=O)OCc1ccccc1)C(N)=O (centres undefined) (Cbz-Asp(OBn)-[Aib]-Ala-NH2; configuration not given here) | > 200 | > 200 | 
